Assay [1] concerns the target MAGL (Mus musculus (Mouse), UniProt O35678). Nature of the assay: In vitro competitive activity-based protein profiling, mouse brain proteome. The format is biochemical. Conditions: for inhibition at 1 µM: mouse; for IC50: mouse brain.
Assay [2] deals with MAGL (Homo sapiens (Human), UniProt Q99685). Kind of assay: In vitro competitive activity-based protein profiling (gel-based, FP-Rh or HT-01 probe). In kind it is biochemical. On the procedure:
In Vitro Competitive Activity-Based Protein Profiling.
Proteomes (human prefrontal cortex or cell membrane fractions) (50 μL, 1.0 mg/mL total protein concentration) were preincubated with varying concentrations of inhibitors at 37° C. After 30 min, FP-Rh or HT-01 (1.0 μL, 50 μM in DMSO) was added and the mixture was incubated for another 30 min at room temperature. Reactions were quenched with SDS loading buffer (15 μL—4×) and run on SDS-PAGE.

The mark [3] stands for this setting: human PFC (prefrontal cortex), read-out: MAGL % Inhibition at 1 μM (human PFC).
Setting [4] is: human PC3, read-out: MAGL % Inhibition at 1 μM (human PC3).
[5] abbreviates: human PC3, read-out: MAGL Human PC3 (IC50).

This note sets out measurements from US11142526B2, “Spirocycle compounds and methods of making and using same” (H. Lundbeck A/S, priority 2017, dated 2021).

Read-outs that look alike come from different tables or passages of the source.

Sequence of MAGL (Homo sapiens (Human), UniProt Q99685) (Q99685 whole entry): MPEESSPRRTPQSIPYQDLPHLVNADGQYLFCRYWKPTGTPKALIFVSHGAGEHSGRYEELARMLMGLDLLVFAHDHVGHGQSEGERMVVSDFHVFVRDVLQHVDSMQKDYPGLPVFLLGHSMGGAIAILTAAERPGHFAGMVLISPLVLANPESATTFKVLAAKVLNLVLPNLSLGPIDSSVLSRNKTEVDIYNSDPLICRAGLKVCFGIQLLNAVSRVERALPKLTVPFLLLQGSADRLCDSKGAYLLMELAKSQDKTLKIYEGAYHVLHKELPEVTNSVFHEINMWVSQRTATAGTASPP
Sequence of MAGL (Mus musculus (Mouse), UniProt O35678) (O35678 whole entry): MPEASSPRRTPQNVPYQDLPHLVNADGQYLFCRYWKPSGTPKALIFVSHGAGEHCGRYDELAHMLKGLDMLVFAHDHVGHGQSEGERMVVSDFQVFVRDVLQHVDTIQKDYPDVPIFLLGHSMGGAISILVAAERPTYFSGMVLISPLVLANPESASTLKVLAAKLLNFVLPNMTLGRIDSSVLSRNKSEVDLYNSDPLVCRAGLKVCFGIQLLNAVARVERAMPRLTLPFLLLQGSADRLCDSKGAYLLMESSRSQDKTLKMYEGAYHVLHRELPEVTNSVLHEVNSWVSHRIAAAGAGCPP

The inhibition is how much of the control response was suppressed. As to `Cc1nn(C)c(C(=O)N2CCCC23CCN(C(=O)OC(C(F)(F)F)C(F)(F)F)CC3)c1C#N` [Example 19, 1,1,1,3,3,3-hexafluoropropan-2-yl 1-(4-cyano-1,3-dimethyl-1H-pyrazole-5-carbonyl)-1,8-diazaspiro[4.5]decane-8-carboxylate], the inhibition at 1 µM at MAGL [1] and on MAGL [2] (setting [3]) was above 75% each time.

One may read the IC50 as the midpoint of a concentration-inhibition curve. For `CC(C)N1CCn2cc(C(=O)N(C)C3(C)CCN(C(=O)OC(C(F)(F)F)C(F)(F)F)CC3)nc2C1` [Example 22, 1,1,1,3,3,3-Hexafluoropropan-2-yl 4-(7-isopropyl-N-methyl-5,6,7,8-tetrahydroimidazo[1,2-a]pyrazine-2-carboxamido)-4-methylpiperidine-1-carboxylate], the inhibition at 1 µM at MAGL [1], at MAGL [2] (setting [4]) and on MAGL [2] (setting [3]) was above 75% each time. At MAGL [2] (setting [5]), the IC50 was below 100 nM.

For the molecule `CN(C(=O)c1cn2c(n1)CN(C1CCC1)CC2)C1(C)CCN(C(=O)OC(C(F)(F)F)C(F)(F)F)CC1` [Example 23, 1,1,1,3,3,3-Hexafluoropropan-2-yl 4-(7-cyclobutyl-N-methyl-5,6,7,8-tetrahydroimidazo[1,2-a]pyrazine-2-carboxamido)-4-methylpiperidine-1-carboxylate], the inhibition at 1 µM on MAGL [1], on MAGL [2] (setting [4]) and on MAGL [2] (setting [3]) was above 75% each time. The IC50 on MAGL [2] (setting [5]) was below 100 nM.

Consider `[2H]C1(N2CCn3cc(C(=O)N(C)C4(C)CCN(C(=O)OC(C(F)(F)F)C(F)(F)F)CC4)nc3C2)CC1` [Example 25, 1,1,1,3,3,3-hexafluoropropan-2-yl 4-(7-(cyclopropyl-1-d)-N-methyl-5,6,7,8-tetrahydroimidazo[1,2-a]pyrazine-2-carboxamido)-4-methylpiperidine-1-carboxylate], for which the inhibition at 1 µM on MAGL [1] and at MAGL [2] (setting [4]) was above 75% in each case. Also, the IC50 on MAGL [2] (setting [5]) was below 100 nM.

In the case of `CC(=O)N1CCn2cc(C(=O)N(C)C3(C)CCN(C(=O)OC(C(F)(F)F)C(F)(F)F)CC3)nc2C1` [Example 26, 1,1,1,3,3,3-Hexafluoropropan-2-yl 4-(7-acetyl-N-methyl-5,6,7,8-tetrahydroimidazo[1,2-a]pyrazine-2-carboxamido)-4-methylpiperidine-1-carboxylate], the inhibition at 1 µM on MAGL [1] is 25 to 75%; on MAGL [2] (setting [4]) it was above 75%; on MAGL [2] (setting [3]) it was above 75%.

Regarding `CC1(NC(=O)c2cn3c(n2)CN(c2ncco2)CC3)CCN(C(=O)OC(C(F)(F)F)C(F)(F)F)CC1` [Example 28, 1,1,1,3,3,3-Hexafluoropropan-2-yl 4-methyl-4-(7-(oxazol-2-yl)-5,6,7,8-tetrahydroimidazo[1,2-a]pyrazine-2-carboxamido)piperidine-1-carboxylate], the inhibition at 1 µM on MAGL [1] and at MAGL [2] (setting [4]) was above 75% throughout.

With `CC1(NC(=O)c2cn3c(n2)CN(c2cnccn2)CC3)CCN(C(=O)OC(C(F)(F)F)C(F)(F)F)CC1` [Example 29, 1,1,1,3,3,3-Hexafluoropropan-2-yl 4-methyl-4-(7-(pyrazin-2-yl)-5,6,7,8-tetrahydroimidazo[1,2-a]pyrazine-2-carboxamido)piperidine-1-carboxylate], the inhibition at 1 µM on MAGL [1] and at MAGL [2] (setting [4]) was above 75% in each case.

On to `Cc1cccnc1C1(C(=O)N2CCCC23CCN(C(=O)OC(C(F)(F)F)C(F)(F)F)CC3)CC1` [Example 30, 1,1,1,3,3,3-Hexafluoropropan-2-yl 1-(1-(3-methylpyridin-2-yl)cyclopropane-1-carbonyl)-1,8-diazaspiro[4.5]decane-8-carboxylate], for which the inhibition at 1 µM at MAGL [1], on MAGL [2] (setting [4]) and on MAGL [2] (setting [3]) was above 75% in each case.

Regarding `O=C(OC(C(F)(F)F)C(F)(F)F)N1CCC2(CCCN2C(=O)C2(c3ncc(C4CC4)cn3)CC2)CC1` [Example 33, 1,1,1,3,3,3-Hexafluoropropan-2-yl 1-(1-(5-cyclopropylpyrimidin-2-yl)cyclopropane-1-carbonyl)-1,8-diazaspiro[4.5]decane-8-carboxylate], the inhibition at 1 µM at MAGL [1] and at MAGL [2] (setting [4]) was above 75% in each case. The IC50 on MAGL [2] (human PFC (prefrontal cortex), read-out: MAGL Human PFC (IC50)) was below 100 nM.

For the molecule `CC(C)N1CCn2c(nnc2C(=O)NC2(C)CCN(C(=O)OC(C(F)(F)F)C(F)(F)F)CC2)C1` [Example 36, 1,1,1,3,3,3-Hexafluoropropan-2-yl 4-(7-isopropyl-5,6,7,8-tetrahydro-[1,2,4]triazolo[4,3-a]pyrazine-3-carboxamido)-4-methylpiperidine-1-carboxylate], the inhibition at 1 µM at MAGL [1], on MAGL [2] (setting [4]) and at MAGL [2] (setting [3]) was above 75% each time. Also, at MAGL [2] (setting [5]), the IC50 was below 100 nM.

On MAGL [1], `O=C(OC(C(F)(F)F)C(F)(F)F)N1CCC2(CCCN2Cc2ccc3cccc(Cl)c3n2)CC1` [Example 57, 1,1,1,3,3,3-Hexafluoropropan-2-yl 1-((8-chloroquinolin-2-yl)methyl)-1,8-diazaspiro[4.5] decane-8-carboxylate] came in with an inhibition at 1 µM above 75% and an IC50 below 100 nM. In addition, the concentration for half-maximal inhibition (IC50) at MAGL [2] (setting [5]) was below 100 nM.

Take `O=C(OC(C(F)(F)F)C(F)(F)F)N1CCC2(CCCN2C(=O)c2cncnc2)CC1` [Example 68, 1,1,1,3,3,3-Hexafluoropropan-2-yl 1-(pyrimidine-5-carbonyl)-1,8-diazaspiro[4.5] decane-8-carboxylate]: the results for the inhibition at 1 µM on MAGL [1] and on MAGL [2] (setting [3]) were below 25% and 25 to 75%, respectively.

For the molecule `O=C(OC(C(F)(F)F)C(F)(F)F)N1CCC2(CCCN2C(=O)c2cn3ccccc3n2)CC1` [Example 69, 1,1,1,3,3,3-Hexafluoropropan-2-yl 1-(imidazo[1,2-a]pyridine-2-carbonyl)-1,8-diazaspiro[4.5] decane-8-carboxylate], on MAGL [1], the inhibition at 1 µM was above 75% and the IC50 is below 100 nM. The IC50 at MAGL [2] (setting [5]) was below 100 nM.

For the molecule `CC(C)n1cc(C(=O)N2CCCC23CCN(C(=O)OC(C(F)(F)F)C(F)(F)F)CC3)cn1` [Example 71, 1,1,1,3,3,3-Hexafluoropropan-2-yl 1-(1-isopropyl-1H-pyrazole-4-carbonyl)-1,8-diazaspiro[4.5] decane-8-carboxylate], on MAGL [1], the inhibition at 1 µM was above 75% and the IC50 is below 100 nM. Besides, the IC50 at MAGL [2] (setting [5]) is below 100 nM.

Take `O=C(OC(C(F)(F)F)C(F)(F)F)N1CCC2(CCCN2C(=O)c2nc3ccccc3s2)CC1` [Example 75, 1,1,1,3,3,3-Hexafluoropropan-2-yl 1-(benzo[d]thiazole-2-carbonyl)-1,8-diazaspiro[4.5] decane-8-carboxylate]: at MAGL [1], the inhibition at 1 µM was above 75% and the IC50 is below 100 nM. At MAGL [2] (setting [5]), the IC50 is below 100 nM.

For `Cn1ccc(C(=O)N2CCCC23CCN(C(=O)OC(C(F)(F)F)C(F)(F)F)CC3)n1` [Example 79, 1,1,1,3,3,3-Hexafluoropropan-2-yl 1-(1-methyl-1H-pyrazole-3-carbonyl)-1,8-diazaspiro[4.5] decane-8-carboxylate], at MAGL [1], the inhibition at 1 µM is above 75%. In addition, the concentration for half-maximal inhibition (IC50) was 100 to 1000 nM at MAGL [1] and below 100 nM at MAGL [2] (setting [5]).

On MAGL [1], `O=C(OC(C(F)(F)F)C(F)(F)F)N1CCC2(CCCN2C(=O)c2ccc3nccn3c2)CC1` [Example 85, 1,1,1,3,3,3-Hexafluoropropan-2-yl 1-(imidazo[1,2-a]pyridine-6-carbonyl)-1,8-diazaspiro[4.5] decane-8-carboxylate] registered an inhibition at 1 µM above 75% and an IC50 of 100 to 1000 nM. Further, the IC50 at MAGL [2] (setting [5]) is below 100 nM.

`O=C(OC(C(F)(F)F)C(F)(F)F)N1CCC2(CCCN2C(=O)c2ccc3scnc3c2)CC1` [Example 86, 1,1,1,3,3.3-Hexafluoropropan-2-yl 1-(benzo[d]thiazole-5-carbonyl)-1,8-diazaspiro[4.5] decane-8-carboxylate]: at MAGL [1], the inhibition at 1 µM was above 75% and the IC50 was below 100 nM. Also, the IC50 on MAGL [2] (setting [5]) is below 100 nM.

At MAGL [1], `O=C(OC(C(F)(F)F)C(F)(F)F)N1CCC2(CCCN2C(=O)c2ccc3ocnc3c2)CC1` [Example 87, 1,1,1,3,3.3-Hexafluoropropan-2-yl 1-(benzo[d]oxazole-5-carbonyl)-1,8-diazaspiro[4.5] decane-8-carboxylate] displayed an inhibition at 1 µM above 75% and an IC50 below 100 nM. Further, on MAGL [2] (setting [5]), the half-inhibitory concentration (IC50) is below 100 nM.

With `O=C(OC(C(F)(F)F)C(F)(F)F)N1CCC2(CCCN2C(=O)c2cnn(Cc3ccccc3)c2)CC1` [Example 88, 1,1,1,3,3,3-Hexafluoropropan-2-yl 1-(1-benzyl-1H-pyrazole-4-carbonyl)-1,8-diazaspiro[4.5] decane-8-carboxylate], at MAGL [1], the inhibition at 1 µM is above 75% and the IC50 is below 100 nM. Also, the IC50 at MAGL [2] (setting [5]) was below 100 nM.

At MAGL [1], `O=C(OC(C(F)(F)F)C(F)(F)F)N1CCC2(CCCN2C(=O)c2ccn(Cc3ccccc3)n2)CC1` [Example 91, 1,1,1,3,3,3-Hexafluoropropan-2-yl 1-(1-benzyl-1H-pyrazole-3-carbonyl)-1,8-diazaspiro[4.5] decane-8-carboxylate] displayed an inhibition at 1 µM above 75% and an IC50 below 100 nM. On MAGL [2] (setting [5]), the IC50 is below 100 nM.

On MAGL [1], `O=C(OC(C(F)(F)F)C(F)(F)F)N1CCC2(CCCN2C(=O)c2ccn(-c3ccc(Cl)cc3)n2)CC1` [Example 92, 1,1,1,3,3,3-Hexafluoropropan-2-yl 1-(1-(4-chlorophenyl)-1H-pyrazole-3-carbonyl)-1,8-diazaspiro[4.5] decane-8-carboxylate] had an inhibition at 1 µM above 75% and an IC50 below 100 nM. Further, the half-inhibitory concentration (IC50) at MAGL [2] (setting [5]) is below 100 nM.
